Results reported in patent publication US20030207891A1, “Combination therapy for modulating the human sexual response” (Zonagen, Inc., priority 1997, published 2003).
Counter-ions that a name gives are not always drawn.

Tests used:
[1] = test system: corpus cavernosum; details: cited from earlier work; for erection after injection directly into the corpus cavernosum: hypodermic needle; for duration of erection after injection: intracavernosal, appropriate dose
[2] = test system: male erectile dysfunction; details: 25 mg and 50 mg; cited from earlier work
[3] = test system: impotentia erectionis; details: buccal, 100 I.U. three times a day for 14 days; cited from earlier work
[4] = test system: spontaneous erections in men; assay: Effect of phentolamine and a phosphodiesterase inhibitor on spontaneous erections in men (Example 3); format: in vivo, human; details: alone, no sexual stimulation
Description: Example 3 describes a study on the effect of phentolamine and a phosphodiesterase inhibitor on spontaneous erections in men.
Papaverine, a known non-specific phosphodiesterase inhibitor, in combination with phentolamine mesylate was compounded in a rapidly dissolving formulation as set out in Table 5 except that papaverine at the doses indicated below was substituted for Sildenafil.

[5] = test system: impotent men; details: ingestion; cited from earlier work

In the case of `CCN(CC)CCOC(=O)C(Cc1cccc2ccccc12)CC1CCCO1` (mixture of isomers) [naftidrofuryl], the “erection after injection directly into the corpus cavernosum” value [1] is listed as “caused erection”.

For `CCCc1nn(C)c2c(=O)[nH]c(-c3cc(S(=O)(=O)N4CCN(C)CC4)ccc3OCC)nc12` [Sildenafil, 5-[2-ethoxy-5-(4-methylpiperazine-1-ylsulfonyl)phenyl]-1-methyl-3-proplyl-6,7-dihydro-1-H-pyrazolo[4,3-d]pyrimidin-7-one], the “effectiveness at various doses” value [2] is given as “effective”.

In the case of `CN(C)CCCN1c2ccccc2CCc2ccccc21` [imipramine], the “erection after injection directly into the corpus cavernosum” value [1] is listed as “caused erection”.

For `CC[C@H](C)[C@@H]1NC(=O)[C@H](Cc2ccc(O)cc2)NC(=O)[C@@H](N)CSSC[C@@H](C(=O)N2CCC[C@H]2C(=O)N[C@@H](CC(C)C)C(=O)NCC(N)=O)NC(=O)[C@H](CC(N)=O)NC(=O)[C@H](CCC(N)=O)NC1=O` [oxytocin], the “improvement of impotentia erectionis, patients treated” value [3] is given as 12 of the 16.

In the case of `COc1ccc(Cc2nccc3cc(OC)c(OC)cc23)cc1OC` [papaverine], the “erection after injection directly into the corpus cavernosum” value [1] is given as “caused erection” and the “duration of erection after injection” value [1] is given as “unrelenting erection lasting for hours”.

In the case of `CC(COc1ccccc1)N(CCCl)Cc1ccccc1` (centres unmarked) [phenoxybenzamine], the “erection after injection directly into the corpus cavernosum” value [1] is listed as “caused erection” and the “duration of erection after injection” value [1] is listed as “unrelenting erection lasting for hours”.

For `Cc1ccc(N(CC2=NCCN2)c2cccc(O)c2)cc1` [phentolamine mesylate], the spontaneous erections [4] was “did not exhibit spontaneous erections”.

For `Cc1ccc(N(CC2=NCCN2)c2cccc(O)c2)cc1` [phentolamine], the “erection after injection directly into the corpus cavernosum” value [1] is listed as “caused erection”.

For `CC(=O)Oc1cc(C(C)C)c(OCCN(C)C)cc1C` [thymoxamine], the “erection after injection directly into the corpus cavernosum” value [1] is listed as “caused erection”.

In the case of `COc1ccc(CCN(C)CCCC(C#N)(c2ccc(OC)c(OC)c2)C(C)C)cc1OC` (centres unmarked) [verapamil], the “erection after injection directly into the corpus cavernosum” value [1] is listed as “caused erection”.

For `COC(=O)[C@@H]1[C@H]2C[C@H]3c4[nH]c5ccccc5c4CCN3C[C@@H]2CC[C@@H]1O` [yohimbine], the “subjective improvement in erectile ability, impotent men treated” value [5] is given as 38% and the “treated patients reporting complete satisfaction” value [5] is given as 5%.
